# Measured values published in ChEMBL document CHEMBL5634180, “Serratiomycins D1-D3, Antibacterial Cyclic Peptides from a Serratia sp. and Structure Revision of Serratiomycin” (2024).
# How the values were obtained:
# Trichophyton rubrum = assay: Antifungal activity against Trichophyton rubrum NBRC9185 incubated for 16 to 20 hrs; format: functional; conditions: time 16-20 hrs
# Escherichia coli = assay: Antibacterial activity against Escherichia coli ATCC 25922 incubated for 16 to 20 hrs; format: functional; conditions: time 16-20 hrs
# Klebsiella pneumoniae = assay: Antibacterial activity against Klebsiella pneumoniae ATCC 10031 incubated for 16 to 20 hrs; format: functional; conditions: time 16-20 hrs
# Candida albicans = assay: Antifungal activity against Candida albicans ATCC 10231 incubated for 16 to 20 hrs; format: functional; conditions: time 16-20 hrs
# Aspergillus fumigatus = assay: Antifungal activity against Aspergillus fumigatus HIC6094 incubated for 16 to 20 hrs; format: functional; conditions: time 16-20 hrs
# [1] = test system: Trichophyton mentagrophytes; assay: Antifungal activity against Trichophyton mentagrophytes IFM40996 incubated for 16 to 20 hrs; format: functional; conditions: time 16-20 hrs
# Enterococcus faecium = assay: Antibacterial activity against Enterococcus faecium ATCC 19434 incubated for 16 to 20 hrs; format: functional; conditions: time 16-20 hrs
# Staphylococcus aureus = assay: Antibacterial activity against Staphylococcus aureus ATCC 25923 incubated for 16 to 20 hrs; format: functional; conditions: time 16-20 hrs
# Enterococcus faecalis = assay: Antibacterial activity against Enterococcus faecalis ATCC 19433 incubated for 16 to 20 hrs; format: functional; conditions: time 16-20 hrs
# Salmonella enterica = assay: microbe, parasite or virus in culture; conditions: ATCC 14028
# Description: Antibacterial activity against Salmonella enterica ATCC 14028 incubated for 16 to 20 hrs
SMILES,MIC (Trichophyton rubrum) [µg/mL],MIC (Escherichia coli) [µg/mL],MIC (Klebsiella pneumoniae) [µg/mL],MIC (Candida albicans) [µg/mL],MIC (Aspergillus fumigatus) [µg/mL],MIC [1] [µg/mL],MIC (Enterococcus faecium) [µg/mL],MIC (Staphylococcus aureus) [µg/mL],MIC (Enterococcus faecalis) [µg/mL],MIC (Salmonella enterica) [µg/mL]
CCCCCC/C=C\C[C@@H]1CC(=O)N[C@H](CC(C)C)C(=O)N[C@@H](CO)C(=O)N[C@@H]([C@@H](C)O)C(=O)N[C@H](Cc2ccccc2)C(=O)N[C@@H]([C@H](C)CC)C(=O)O1,> 128,> 128,> 128,> 128,> 128,> 128,32,16,32,8
CCCCCCCCC[C@@H]1CC(=O)N[C@H](CC(C)C)C(=O)N[C@@H](CO)C(=O)N[C@@H]([C@@H](C)O)C(=O)N[C@H](Cc2ccccc2)C(=O)N[C@@H]([C@H](C)CC)C(=O)O1,> 128,> 128,> 128,> 128,> 128,> 128,32,16,64,16
CCCCCCC[C@@H]1CC(=O)N[C@H](CC(C)C)C(=O)N[C@@H](CO)C(=O)N[C@@H]([C@@H](C)O)C(=O)N[C@H](Cc2ccc(O)cc2)C(=O)N[C@@H](C(C)C)C(=O)O1,> 128,> 128,> 128,> 128,> 128,> 128,> 128,> 128,> 128,> 128
CCCCCCC[C@@H]1CC(=O)N[C@H](CC(C)C)C(=O)N[C@@H](CO)C(=O)N[C@@H]([C@@H](C)O)C(=O)N[C@H](Cc2ccccc2)C(=O)N[C@@H]([C@H](C)CC)C(=O)O1,> 128,> 128,> 128,> 128,> 128,> 128,32,32,32,32
CCCCCCC[C@@H](O)CC(=O)N[C@H](CC(C)C)C(=O)N[C@@H](CO)C(=O)N[C@H](C(=O)N[C@H](Cc1ccccc1)C(=O)N[C@H](C(=O)OC)[C@H](C)CC)[C@@H](C)O,> 128,> 128,> 128,> 128,> 128,> 128,> 128,> 128,> 128,> 128
C[C@@H]1[C@H](O)[C@@H](C)/C=C/C=C/C=C/C=C/C=C/C=C/C=C/[C@H](O[C@@H]2O[C@H](C)[C@@H](O)[C@H](N)[C@@H]2O)C[C@@H]2O[C@](O)(C[C@@H](O)C[C@@H](O)[C@H](O)CC[C@@H](O)C[C@@H](O)CC(=O)O[C@H]1C)C[C@H](O)[C@H]2C(=O)O [AMPHOTERICIN B],1,,,0.5,1,1,,,,
CC1(C)S[C@@H]2[C@H](NC(=O)[C@H](N)c3ccccc3)C(=O)N2[C@H]1C(=O)O [AMPICILLIN],,8,> 128,,,,0.5,0.13,0.5,0.5
CN(C)[C@@H]1C(O)=C(C(N)=O)C(=O)[C@@]2(O)C(O)=C3C(=O)c4c(O)cccc4[C@@](C)(O)[C@H]3C[C@@H]12 [TETRACYCLINE],,,0.25,,,,,,,
